Reference: patent US8129377B2, “6-(pyridinyl)-4-pyrimidone derivates as tau protein kinase 1 inhibitors” (Mitsubishi Tanabe Pharma Corporation, priority 2004, dated 2012)

target: T1, bovine cerebral TPK1 (Bos taurus, UniProt A0A3Q1MT31); experiment: Inhibitory activity against P-GS1 phosphorylation by bovine cerebral TPK1; type: biochemical; conditions: 41.7 μM [γ-32P] ATP, 25° C., 2 hours
T1 construct: from tissue; host or cells: bovine brain (cerebrum)
Experimental: Experiment 1: Inhibitory Activity of the Medicament of the Present Invention Against P-GS1 Phosphorylation by Bovine Cerebral TPK1
A mixture containing 100 mM MES-sodium hydroxide (pH 6.5), 1 mM magnesium acetate, 0.5 mM EGTA, 5 mM β-mercaptoethanol, 0.02% Tween 20, 10% glycerol, 12 μg/ml P-GS1, 41.7 μM [γ^−32P] ATP (68 kBq/ml), bovine cerebral TPK1 and a compound shown in Table (a final mixture contained 1.7% DMSO deriving from a solution of a test compound prepared in the presence of 10% DMSO) was used as a reaction system. The phosphorylation was started by adding ATP, and the reaction was conducted at 25° C. for 2 hours, and then stopped by adding 21% perchloric acid on ice cooling. The reaction mixture was centrifuged at 12,000 rpm for 5 minutes and adsorbed on P81 paper (Whatmann), and then the paper was washed four times with 75 mM phosphoric acid, three times with water and once with acetone. The paper was dried, and the residual radioactivity was measured using a liquid scintillation counter.

T1 sequence (A0A3Q1MT31 1-419): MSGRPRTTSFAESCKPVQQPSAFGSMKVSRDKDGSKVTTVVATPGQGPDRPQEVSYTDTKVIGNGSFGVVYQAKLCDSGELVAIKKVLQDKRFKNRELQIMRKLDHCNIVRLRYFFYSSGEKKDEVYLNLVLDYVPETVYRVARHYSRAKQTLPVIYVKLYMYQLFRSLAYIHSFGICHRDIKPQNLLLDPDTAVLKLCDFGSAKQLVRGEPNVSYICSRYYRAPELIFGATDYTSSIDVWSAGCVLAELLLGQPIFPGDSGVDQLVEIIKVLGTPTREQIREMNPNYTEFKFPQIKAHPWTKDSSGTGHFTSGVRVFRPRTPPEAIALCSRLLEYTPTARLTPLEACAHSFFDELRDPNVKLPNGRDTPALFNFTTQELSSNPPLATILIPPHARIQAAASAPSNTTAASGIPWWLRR

| SMILES | IC50 [nM] |
| --- | --- |
| Cn1c(N2CCO[C@@H](c3cc4ccccc4o3)C2)nc(-c2ccncc2F)cc1=O [compound 4] | 7.9 |
| Cn1c(N2CCO[C@@H](c3c(F)cccc3Cl)C2)nc(-c2ccncc2F)cc1=O [compound 5] | 1.4 |
| Cn1c(N2CCN[C@@H](c3ccc(N4CCCCC4)cc3)C2)nc(-c2ccncc2F)cc1=O [compound 14, 6-(3-Fluoro-pyridin-4-yl)-3-methyl-2-((3S)-3-(4-piperidin-1-yl-phenyl)-piperazin-1-yl)-3H-pyrimidin-4-one] | 3.7 |
| Cn1c(N2CCO[C@@H](c3ccc(N4CCC(N5CCCC5)CC4)cc3)C2)nc(-c2ccncc2F)cc1=O [compound 17] | 1.7 |
| Cn1c(N2CCN[C@@H](c3ccc(N4CCN(c5ccccc5)CC4)cc3)C2)nc(-c2ccncc2F)cc1=O [compound 22] | 0.53 |
| COc1ccc(-c2ccc([C@H]3CN(c4nc(-c5ccncc5F)cc(=O)n4C)CCN3)cc2)cc1 [compound 41] | 0.73 |
| Cn1c(N2CCC(c3ccc(N4CCCC4)cc3)CC2)nc(-c2ccncc2F)cc1=O [compound 56] | 6.4 |
| CC(C)Oc1ccc(-c2ccc([C@H]3CN(c4nc(-c5ccncc5F)cc(=O)n4C)CCN3)cc2)cc1 [compound 92] | 1.2 |
| Cn1c(N2CCC(Nc3cccc(C(F)(F)F)c3)CC2)nc(-c2ccncc2F)cc1=O [compound 105] | 8.2 |
| Cn1c(N2CCO[C@@H](c3ccc(N)cc3)C2)nc(-c2ccncc2F)cc1=O [compound 158, 2-((2S)-2-(4-Aminophenyl)morpholin-4-yl)-6-(3-fluoropyridin-4-yl)-3-methyl-3H-pyrimidin-4-one] | 2.9 |
| CNc1cc(-c2cc(=O)n(C)c(N3CCO[C@@H](c4cc(C#N)ccc4OC)C3)n2)ccn1 [compound 196] | 13 |
| Cn1c(N2CCO[C@@H](c3ccc(NC(=O)C4CCCCC4)cc3)C2)nc(-c2ccncc2F)cc1=O [compound 209] | 2.2 |
| Cc1cc(C2CN(c3nc(-c4ccncc4F)cc(=O)n3C)CCO2)ccc1Br (stereo not drawn) [compound 210] | 0.51 |
| CN(c1ccc([C@H]2CN(c3nc(-c4ccncc4F)cc(=O)n3C)CCO2)cc1)c1ccccn1 [compound 212] | 5.4 |
| Cn1c(N2CCO[C@@H](c3ccc(NC(=O)C(C)(C)C)cc3)C2)nc(-c2ccncc2F)cc1=O [compound 215] | 4.2 |
| Cn1c(N2CCO[C@@H](c3ccc(N[C@@H]4CCOC4)cc3)C2)nc(-c2ccncc2F)cc1=O [compound 220, 2-((2S)-2-(4-(N-((3R)-Tetrahydrofuran-3-yl)amino)phenyl)morpholin-4-yl)-3-methyl-6-(3-fluoropyridin-4-yl)-3H-pyrimidin-4-one] | 2.7 |
| CN(c1ccc([C@H]2CN(c3nc(-c4ccncc4F)cc(=O)n3C)CCO2)cc1)[C@@H]1CCOC1 [compound 221, 6-(3-Fluoropyridin-4-yl)-2-((2S)-2-(4-(N-methyl-N-((3R)-tetrahydrofuran-3yl)amino)phenyl)morpholin-4-yl)-3-methyl-3H-pyrimidin-4-one] | 3.9 |
| Cn1c(N2CCO[C@@H](c3ccc(OCCN4CCOCC4)cc3)C2)nc(-c2ccncc2F)cc1=O [compound 224] | 1.1 |
| CC(=O)N1CCC(Oc2ccc([C@H]3CN(c4nc(-c5ccncc5F)cc(=O)n4C)CCO3)cc2)CC1 [compound 238, 2-((2S)-2-(4-(1-Acetylpiperidin-4-yloxy)phenyl)morpholin-4-yl)-6-(3-fluoropyridin-4-yl)-3-methyl-pyrimidin-4-one] | 6.4 |
| COc1cc(Cl)ccc1[C@H]1CN(c2nc(-c3ccncc3Cl)cc(=O)n2C)CCO1 [compound 247] | 13 |
| CN(C)CC(=O)Nc1ccc([C@H]2CN(c3nc(-c4ccncc4F)cc(=O)n3C)CCO2)cc1 [compound 288, N^2,N^2-Dimethyl-N^1-(4-((2S)-4-(3-methyl-4-oxo-3,4-dihydro-6-(3-fluoropyridin-4-yl)pyrimidin-2-yl)morpholin-2-yl)phenyl)glycinamide] | 0.27 |
| COC(=O)Nc1ccc([C@H]2CN(c3nc(-c4ccncc4F)cc(=O)n3C)CCO2)cc1 [compound 295, Methyl (4-((2S)-4-(6-(3-fluoropyridin-4-yl)-3-methyl-4-oxo-3H-pyrimidin-2-yl)morpholin-2-yl)phenyl)carbamate] | 1.2 |
| CN(C)C(=O)Nc1ccc([C@H]2CN(c3nc(-c4ccncc4F)cc(=O)n3C)CCO2)cc1 [compound 298, N′-(4-((2S)-4-(6-(3-Fluoropyridin-4-yl)-3-methyl-4-oxo-3H-pyrimidin-2-yl)morpholin-2-yl)phenyl)-N,N-dimethylurea] | 11 |
| Cn1c(N2CCC[C@H](c3ccc(Br)cc3)C2)nc(-c2ccncc2F)cc1=O [compound 303, 2-((3R)-3-(4-Bromophenyl)piperidin-1-yl)-6-(3-fluoropyridin-4-yl)-3-methyl-3H-pyrimidine-4-one] | 6.2 |
| Cn1c(N2CCOC(c3ccc4c(c3)CCC(=O)N4)C2)nc(-c2ccncc2F)cc1=O (stereo not drawn) [compound 305] | 1.2 |
| Cn1c(N2CCO[C@@H](c3ccc(C(=O)N4CCOCC4)cc3)C2)nc(-c2ccncc2F)cc1=O [compound 310] | 7.4 |
| COc1ccc(NC(C)=O)cc1[C@H]1CN(c2nc(-c3ccncc3F)cc(=O)n2C)CCO1 [compound 313] | 0.48 |
| CC(=O)Nc1cccc([C@H]2CN(c3nc(-c4ccncc4F)cc(=O)n3C)CCO2)c1 [compound 314] | 4.1 |
| Cn1c(N2CCN[C@@H](c3ccc(-c4ncon4)cc3)C2)nc(-c2ccncc2F)cc1=O [compound 322, 6-(3-Fluoropyridin-4-yl)-3-methyl-2-((3S)-3-(4-([1,2,4]oxadiazol-3-yl)phenyl)piperazin-1-yl)-3H-pyrimidin-4-one] | 4.8 |
| Cc1nc(-c2ccc([C@H]3CN(c4nc(-c5ccncc5F)cc(=O)n4C)CCN3)cc2)no1 [compound 334, 6-(3-Fluoropyridin-4-yl)-3-methyl-2-((3S)-3-(4-(5-methyl-[1,2,4]oxadiazol-3-yl)phenyl)piperazin-1-yl)-3H-pyrimidin-4-one] | 2.9 |
